Measured values reported in patent US20130059840A1, “SULFONAMIDO PYRROLIDINE COMPOUNDS WHICH INHIBIT BETA-SECRETASE ACTIVITY AND METHODS OF USE THEREOF” (CoMentis, Inc., priority 2009, published 2013).

Tests used:
memapsin 2 [1] = target: memapsin 2 (Homo sapiens, UniProt P56817); experiment: Inhibition of memapsin 2 beta-secretase activity (fluorogenic substrate FS-2); assay type: biochemical; conditions: pH 4, 37° C., read-out: M2 Ki
Experimental: Potency of compounds were determined by measurement of their inhibition of memapsin 2 activity toward a fluorescent substrate. Kinetic inhibition experiments were performed using the procedure as described in Ermolieff, et al. (Biochemistry 39:12450-12456 (2000), the teachings of which are incorporated hereby in their entirety). Briefly, assays were performed at pH 4, 37° C., by pre-incubation of memapsin 2 enzyme with compound for 20 minutes. Activity measurements were initiated by addition of a fluorogenic substrate FS-2 (Bachem Americas, Torrance, Calif.) MCA-SEVNLDAEFR-DNP (SEQ ID NO.: 2). The substrate was derived from 10 amino acids of the human amyloid precursor protein (APP), with the Swedish variant amino acids at the beta-secretase cleavage site. The terminal amino acid was modified from arginine to lysine to facilitate derivatization with a functional group for detection by autofluorescence. The amino acid sequence of the “core” peptide of the substrate is SEVNLDAEFK (SEQ ID NO.: 3). The amino terminus was derivatized with (7-methoxycoumarin-4-yl)acetyl (MCA), and the epsilon amine of the lysine side chain of the terminal residue (K in sequence SEVNLDAEFK (SEQ ID NO.: 3)) was derivatized with 2,4-dinitrophenyl (DNP).

memapsin 2 [2] = target: T1, memapsin 2 (Cricetulus griseus, UniProt G3IAK4); experiment: Cellular Aβ IC50 determination (Aβ40 sandwich ELISA); assay type: cell-based; conditions: Chinese hamster ovary cells over-expressing human APP695 (London and Swedish mutations), Aβ40, 24 h; read-out: M2 IC50
T1 construct: endogenous in cells; host or cells: Chinese hamster ovary cells over-expressing human APP695 (London + Swedish)
Experimental: The potency of compounds against memapsin 2 activity was determined in a cellular assay of Aβ production. […] Chinese hamster ovary cells that over-express human APP695 with the London and Swedish mutations were seeded in multi-well plates at 10% confluency. Compounds are dissolved in DMSO to concentrations near 1 mM, and diluted into culture media to a final concentration near 4 μM (final 0.4% DMSO). Compounds were diluted serially and applied to cells in multi-well plates 48 h after seeding. Incubation was continued in 5% CO2 at 37° C. for 24 h. Aliquots were removed and assayed for Aβ40 content using a sandwich ELISA (BioSource International). Amount of Aβ40 over the range of concentration of compounds, relative to control incubations, were fit to a 4-parameter IC50 model.

Cathepsin D = Cathepsin D (UniProt P07339); experiment: Inhibition of cathepsin D activity (MALDI-TOF, substrate peptide); assay type: biochemical; conditions: substrate peptide NH3-ELDLAVEFWHDR-CO2, pH 4.1, 37 degrees C.; read-out: CD Ki
[3] = Hepatic intrinsic clearance in liver microsomes; assay type: in vitro ADME; conditions: pH 7.4; human liver microsomes, LC/MS/MS; read-out: HLM CL
Experimental: To 500 μl of 200 mM Na^+ K^+ phosphate buffer (pH 7.4), 100 μl of 1 mM EDTA solution was added followed by 100 μl of 2 mg protein/ml human liver microsomes. A 10 μl aliquot of test compound (20 mM stock in 50% acetonitrile) was diluted further with 40 μl of H2O (total assay volume 750 μl. Assay mixture is incubated for 5 minutes at 37° C. The assay was initiated by addition of 250 μl of 4 mM NADPH solution. Incubation was continued at 37° C. Separate reaction mixtures were prepared for 0, 5, 10, 20, and 30 min durations. Individual reactions were halted by addition of 150 μl of 100% acetonitrile. Internal standard (10 μl of 100 ng/ml diazepam solution) was added. Concentration of the test compound in each separate reaction was measured using LC/MS/MS and a standard curve for the test compound according to standard procedures.
The hepatic intrinsic clearance in liver microsome was determined by the following procedure described by Davies and Morris (Davies, B. and Morris, T. (19930) Physiological parameters in laboratory animals and humans. Pharm Res. 10:1093-1095) detailing the relationship of in vitro clearance to physiological parameters in animals and human subjects.
The amount of compound remaining at each time point was expressed relative to the amount present in the initial (0 min) incubation. The relationship of relative amount vs. time was used to determine the half life of the compound in the microsome assay. The concentration independent rate constant, k1, was determined from rectangular hyperbolic fit:
% remaining=100*(e^−k^1^T)
where T is time (in minutes), from the relationship of relative amount vs. time. Alternatively, k1 was determined from a transform of the equation, where
Conversion to in vivo clearance was obtained from the relation (Davies and Morris, 1993):
where v=velocity of metabolism, [S] is the concentration of the compound, and volumes are expressed in mL.

CYP3A4 = target: T2, CYP3A4 (Homo sapiens, UniProt P08684); experiment: Determination of CYP3A4 inhibition (midazolam metabolism); assay type: in vitro ADME; conditions: human liver microsomes, midazolam substrate
T2 construct: with human liver microsomes (HLM) at a final protein concentration of 0.1 mg/mL protein; from tissue; host or cells: human liver microsomes
Experimental: To evaluate the drug-drug interaction potential for compounds, the potency to inhibit the major metabolic cytochrome CYP450 isoform 3A4 was assessed. The inhibition constant Ki was determined for inhibition of the metabolism of midazolam, a CYP3A4 substrate.
CYP3A4 Ki assays were performed following a recently published protocol with slight modifications (Di, L., Kerns, E. H., Li, S. Q., and Carter, G. T. (2007) Comparison of cytochrome P450 inhibition assays for drug discovery using human liver microsomes with LC-MS, rhCYP450 isozymes with fluorescence, and double cocktail with LC-MS. International Journal of Pharmaceutics 335: 1-11). The P450 inhibition assay was performed in 96-well plates at 37.2° C. in a shaking incubator. […]
After incubation for the specified time in a humidified shaking incubator, 20 μL of the reaction mixture was removed and the reactions were terminated by adding […] of cold acetonitrile. […] Formation of 1′-hydroxymidazolam was measured by monitoring a specific SRM (342>203) transition for the CYP3A4 metabolite.
Data were expressed as the relative quantity of midazolam metabolite relative to control incubations. Initial velocities were obtained by multiplying the relative quantity by the initial substrate concentration and dividing by the incubation duration. […]

T1 sequence (G3IAK4 22-501): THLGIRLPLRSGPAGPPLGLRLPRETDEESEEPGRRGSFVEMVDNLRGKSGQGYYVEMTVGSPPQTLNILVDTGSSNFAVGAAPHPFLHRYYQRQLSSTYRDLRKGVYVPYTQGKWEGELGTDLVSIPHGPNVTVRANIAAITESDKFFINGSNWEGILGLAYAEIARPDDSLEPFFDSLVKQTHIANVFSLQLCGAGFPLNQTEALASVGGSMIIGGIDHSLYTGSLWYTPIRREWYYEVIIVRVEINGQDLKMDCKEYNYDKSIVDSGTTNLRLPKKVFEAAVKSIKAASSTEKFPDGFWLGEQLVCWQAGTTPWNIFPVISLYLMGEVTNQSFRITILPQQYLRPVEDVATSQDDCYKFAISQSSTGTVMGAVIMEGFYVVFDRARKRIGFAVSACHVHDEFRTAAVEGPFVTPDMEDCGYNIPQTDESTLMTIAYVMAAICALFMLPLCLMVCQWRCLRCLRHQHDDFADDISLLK
Chain of memapsin 2 (Homo sapiens, UniProt P56817) (P56817 46-501): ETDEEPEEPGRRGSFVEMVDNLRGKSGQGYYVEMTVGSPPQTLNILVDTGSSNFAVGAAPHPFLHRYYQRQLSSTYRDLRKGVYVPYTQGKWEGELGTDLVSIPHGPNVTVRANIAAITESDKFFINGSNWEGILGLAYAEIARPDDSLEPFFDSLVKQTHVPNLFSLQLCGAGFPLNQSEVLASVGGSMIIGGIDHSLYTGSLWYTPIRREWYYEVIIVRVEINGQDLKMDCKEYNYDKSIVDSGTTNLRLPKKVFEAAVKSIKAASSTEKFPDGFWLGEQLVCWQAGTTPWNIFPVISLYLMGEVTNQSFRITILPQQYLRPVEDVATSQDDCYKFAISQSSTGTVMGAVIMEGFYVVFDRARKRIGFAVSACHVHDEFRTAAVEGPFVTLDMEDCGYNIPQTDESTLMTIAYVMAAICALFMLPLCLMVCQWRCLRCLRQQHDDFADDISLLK
T2 sequence (P08684 whole entry): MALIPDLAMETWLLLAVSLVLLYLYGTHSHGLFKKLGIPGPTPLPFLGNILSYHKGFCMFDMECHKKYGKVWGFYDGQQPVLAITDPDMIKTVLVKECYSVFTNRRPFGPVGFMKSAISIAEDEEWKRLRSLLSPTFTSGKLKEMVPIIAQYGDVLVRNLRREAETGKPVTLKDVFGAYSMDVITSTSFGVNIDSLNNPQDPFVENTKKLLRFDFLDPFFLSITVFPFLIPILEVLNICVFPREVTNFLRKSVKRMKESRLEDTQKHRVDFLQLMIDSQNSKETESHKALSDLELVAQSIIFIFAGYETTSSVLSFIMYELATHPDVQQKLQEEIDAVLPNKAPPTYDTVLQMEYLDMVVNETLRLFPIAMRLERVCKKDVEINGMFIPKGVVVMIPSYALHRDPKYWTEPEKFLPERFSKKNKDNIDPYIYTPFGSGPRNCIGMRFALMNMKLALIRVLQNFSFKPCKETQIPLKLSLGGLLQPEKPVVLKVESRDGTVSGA

SMILES | Ki (memapsin 2 [1]) | IC50 (memapsin 2 [2]) | Ki (Cathepsin D) | CLint scaled at 200 μM [3] | Ki (CYP3A4)
Cc1csc([C@H]2CCCN2C(=O)c2cc(C(=O)N[C@@H](Cc3cc(F)cc(F)c3)[C@H](O)[C@H]3CCCN3)cc(N3CCCCS3(=O)=O)c2)n1 [1-87, N-((1R,2S)-1-hydroxy-3-(3,5-difluorophenyl)-1-((R)-pyrrolidin-2-yl)propan-2-yl)-3-((R)-2-(4-methylthiazol-2-yl)pyrrolidine-1-carbonyl)-5-(thiazinanyl-S,S-dioxide)benzamide] | < 250 nM | < 500 nM | > 500 nM | < 400 mL/min/kg | > 10000 nM
Cc1csc([C@H]2CCCN2C(=O)c2cc(C(=O)N[C@@H](Cc3cc(F)cc(F)c3)[C@H](O)[C@H]3CCCN3)cc(N3CCCS3(=O)=O)c2)n1 [1-90, N-((1R,2S)-1-hydroxy-3-(3,5-difluorophenyl)-1-((R)-pyrrolidin-2-yl)propan-2-yl)-3-((R)-2-(4-methylthiazol-2-yl)pyrrolidine-1-carbonyl)-5-([1,2]thiazolidyl-S,S-dioxide)benzamide] | < 250 nM | < 500 nM | > 500 nM | < 400 mL/min/kg | –
Cc1csc([C@H]2CCCN2C(=O)c2cc(C(=O)N[C@@H](Cc3ccccc3)[C@H](O)[C@H]3CCCN3)cc(N3CCCCS3(=O)=O)c2)n1 [1-78, N-((1R,2S)-1-hydroxy-3-phenyl-1-((R)-pyrrolidin-2-yl)propan-2-yl)-3-((R)-2-(4-methylthiazol-2-yl)pyrrolidine-1-carbonyl)-5-(thiazinanyl-S,S-dioxide)benzamide] | – | < 500 nM | – | < 400 mL/min/kg | > 10000 nM

Now from value to compound:

Ki (memapsin 2 [1]) | IC50 (memapsin 2 [2]) | Ki (Cathepsin D) | CLint scaled at 200 μM [3] | Ki (CYP3A4) | SMILES
< 250 nM | < 500 nM | > 500 nM | < 400 mL/min/kg | – | Cc1csc([C@H]2CCCN2C(=O)c2cc(C(=O)N[C@@H](Cc3ccccc3)[C@H](O)[C@H]3CCCN3)cc(N3CCCS3(=O)=O)c2)n1 [1-89, N-((1R,2S)-1-hydroxy-3-phenyl-1-((R)-pyrrolidin-2-yl)propan-2-yl)-3-((R)-2-(4-methylthiazol-2-yl)pyrrolidine-1-carbonyl)-5-([1,2]thiazolidyl-S,S-dioxide)benzamide]
< 250 nM | 500 to 1000 nM | > 500 nM | < 400 mL/min/kg | – | Cc1csc([C@H]2CCCN2C(=O)c2cc(C(=O)N[C@@H](Cc3cccc(F)c3)[C@H](O)[C@H]3CCCN3)cc(N3CCCS3(=O)=O)c2)n1 [1-91, N-((1R,2S)-1-hydroxy-3-(5-fluorophenyl)-1-((R)-pyrrolidin-2-yl)propan-2-yl)-3-((R)-2-(4-methylthiazol-2-yl)pyrrolidine-1-carbonyl)-5-([1,2]thiazolidyl-S,S-dioxide)benzamide]
